± gives the expanded uncertainty stated by the source.
Settings: Liquid

vapor or sublimation pressure (468.15 K) [kPa] | vapor or sublimation pressure (483.15 K) [kPa] | vapor or sublimation pressure (498.15 K) [kPa] | vapor or sublimation pressure (513.15 K) [kPa] | SMILES
3286 ± 100 | – | – | – | CCCCC [pentane]
1351 ± 31 | 1791 ± 39 | 2329 ± 49 | 2946 ± 60 | CCC(C)O (centres undefined) [butan-2-ol]
833 ± 26 | 1182 ± 37 | 1558 ± 48 | 2027 ± 63 | CCCCO [butan-1-ol]
